Data published in publication PMC5900025, “Naphthoquinone Derivatives as Scaffold to Develop New Drugs for Tuberculosis Treatment” (Frontiers in Microbiology, 2018).
In brackets after ≈: the same amount, converted by molar mass. Where two headings read alike, the source gives them in different places.

Experiments:
Assay type in all cases: cell-based
[1] = tested on: J774A.1 macrophage cell line (ATCC TIB-67); assay: Cytotoxicity assay (resazurin); conditions: Mus musculus, J774.A1
[2] = tested on: three M. tuberculosis strains (H37Rv, INHR, RMPR); assay: microbe, parasite or virus in culture; conditions: Mycobacterium tuberculosis, stated for all three strains together
[3] = tested on: M. tuberculosis pan-susceptible H37Rv (ATCC 27294); assay: microbe, parasite or virus in culture; conditions: REMA, 7 days at 37°C
[4] = J774A.1 cells, concentration maintaining viability of 50% of the cells
[5] = Mycobacterium tuberculosis, 168 h, read-out: MIC
[6] = Mycobacterium tuberculosis, 168 h

Work on CC1(C)CC2=C(O1)C(=O)c1ccccc1C2=O [Compound 3, 2,2-Dimethyl-2,3-dihydronaphtho[2,3-b]furan-4,9-dione] yielded an IC50 [1, 4] of over 877 µM, an MIC [2] of 54.8 µM (≈ 12.5 µg/mL) and an MIC [3, 5] of 54.8 µM (≈ 12.5 µg/mL).

With CO[C@H]1/C=C/O[C@@]2(C)Oc3c(C)c(O)c4c(O)c(c(/C=N/N5CCN(C)CC5)c(O)c4c3C2=O)NC(=O)/C(C)=C\C=C\[C@H](C)[C@H](O)[C@@H](C)[C@@H](O)[C@@H](C)[C@H](OC(C)=O)[C@@H]1C [RIF, rifampicin, reference compound] the IC50 [1, 4] was over 2490 µM and the MIC [3, 5] was 0.608 µM (≈ 0.5 µg/mL).

O=C1C(Cl)=C(Cl)C(=O)c2ccccc21 [Compound 1, 2,3-Dichloronaphthalene-1,4-dione] gave an IC50 [1] of 103 µM, an MIC [2] of 111 µM (≈ 25.1 µg/mL) and an MIC [3, 5] of 111 µM (≈ 25.1 µg/mL).

C=CCOC1=CC(=O)c2ccccc2C1=O [Compound 4, 2-(Allyloxy)naphthalene-1,4-dione] gave an IC50 [1, 4] of 173 µM and an MIC [3, 6] of 58.4 µM (≈ 12.5 µg/mL).

CC1(C)CCC2=C(O1)C(=O)c1ccccc1C2=O [Compound 2, 2,2-Dimethyl-3,4-dihydro-2H-benzo[g]chromene-5, 10-dione] gave an IC50 [1, 4] of 285 µM, an MIC [2] of 103 to 207 µM (≈ 25 to 50.1 µg/mL) and an MIC [3, 5] of 103 µM (≈ 25 µg/mL).

NNC(=O)c1ccncc1 [INH, isoniazid, reference compound] showed an IC50 [1, 4] of 3730 µM and an MIC [3, 5] of 0.438 µM (≈ 0.0601 µg/mL).

With O=C1C=C(Nc2ccccc2)C(=O)c2ccccc21 [Compound 6, 2-(Phenylamino)naphthalene-1,4-dione] the IC50 [1, 4] was over 803 µM, the MIC [3, 6] was 110 µM (≈ 27.5 µg/mL) and the MIC ([3]; read-out: MIC) was 100.4 µM (≈ 25 µg/mL).

With NC1=CC(=O)c2ccccc2C1=O [Compound 5, 2-Aminonaphthalene-1,4-dione] the IC50 [1] was over 1160 µM and the MIC [3, 5] was 72.2 µM (≈ 12.5 µg/mL).
